Tested on: human tracheobronchial epithelial cells (hTECs)
Type: cell-based
Conditions: hTEC ALI culture with IL-13, resazurin assay

**Q.** For `Cc1ccc(-n2nc(C(C)(C)C)cc2NC(=O)Nc2ccc(OCCN3CCOCC3)c3ccccc23)cc1` [NuP-43, BIRB-796], which “number of viable cells” value is on record?
**A.** no significant effects

Source: paper PMC10246002 (bioRxiv, 2023)
